# Where “and” joins values, the source holds several entries; their conditions need not be identical. Equal values may be shown once. Read-outs that look alike come from different tables or passages of the source.
# Tests used:
# [1] = tested on: MC-38 adenocarcinoma cells; assay: Growth of inoculated MC-38 adenocarcinoma cells in mice; type: in vivo, mouse
# Description: Data are represented as mean ± standard error (SEM). The same experiment was repeated twice to confirm reproducibility. p-values were determined by two-way ANOVA multiple comparisons. ∗∗∗∗p < 0.0001 and ∗p = 0.0267. […] Data are represented as mean ± SEM. The same experiment was repeated twice to confirm reproducibility. p-values were determined by two-way ANOVA multiple comparisons. ∗∗∗∗p < 0.0001, ∗∗∗p = 0.0005, ∗∗p = 0.0067. […] Ratio of PD-1 positive cells and mean fluorescence intensity (MFI) of PD-1 (D), TIM-3 (E), and LAG-3 (F) on CD8^+ and CD4^+ T cells isolated from tumor microenvironments 9 days after the initiation of treatment are shown. Fluorescence intensity of each molecule was measured by flow cytometry, and the geometric MIFs of marker-positive cells were calculated. The data in two experiments were compiled. p-values were determined by the Brown-Forsythe and Welch ANOVA test. Different letters indicate statistically significant differences between groups (p < 0.05). […]
# Next, the effects of SD-induced PD-1 reduction were compared with those of anti-PD-1 antibody treatment in vivo. […] CD3^+ T cells infiltrating the MC-38 microenvironment were analyzed on day 9 of treatment before the MC-38 tumor masses had shrunk with treatment and no longer provided sufficient T cells for FACS analyses. […]
# mouse PD-1-SD = assay: Linker evaluation of mouse PD-1-SD in Jurkat cells; type: cell-based, human; conditions: PD-1-SD with a linker, 1 µM iberdomide for 1 day
# Text: We used human Jurkat cells as it was difficult to accurately assess exogenous PD-1 expression, as EL4 cells originally expressed mouse PD-1. […] Therefore, the simplest “no linker” construct was adopted for in vivo protein knockdown in mice. Considering that fluorescent proteins affect the degradation efficiency of PD-1,[31] we decided to knock in without a fluorescent protein as a marker. SD was inserted downstream of the endogenous Pdcd1 gene (the gene encoding PD-1) in Crbn^I391V/I391V mice using genome editing (Figures 6A and S5), and double homozygous (Pdcd1^SD/SD/Crbn^I391V/I391V) mice were produced by intercrossing.
# Figure S4 Evaluation of linker sequences between PD-1 and super degron tag A Amino acid sequences of various linkers between PD-1 and super degron (SD) tag. Sequences […]
# were measured by flow cytometry, and the geometric means of fluorescence intensities (MFI) were calculated. The dots indicate the results of the experiment for each of the three samples.
# (1 picture or pasted object on this page, not shown here)
# EGFP-SD = type: cell-based, mouse; conditions: for Plateau, EGFP-SD degradation: control = 1; for K, EGFP-SD degradation: one phase decay
# [2] = tested on: mouse PD-1-mCherry-IKZF minimal tag; assay: Degradation of IKZF minimal-tagged mouse PD-1-mCherry in Jurkat cells; type: cell-based, human; conditions: 24 h
# Text: To identify a tag that could efficiently knock down mouse PD-1, we connected various degron tags to the C-terminus of PD-1, including IKZF1/3, Sall4, ZFP91, and SD, and generated Jurkat human T cell lymphoma cell lines that stably expressed the mouse PD-1-degron tag (Figure 1A). As reported previously,[21]^,[22]^,[23] in mouse CRBN, the 391st amino acid corresponding to Val-388 of human CRBN is Ile, which causes a protrusion when a neo substrate binds to CRBN, resulting in a weaker affinity than in human CRBN (Figure 1B). Therefore, a human cell line was used because it was thought that mouse CRBN would not degrade SD by thalidomide analogs. […] We also analyzed the degradation of total proteins using mCherry.
# Figure 1 Degradation of various degron-tagged mouse PD-1 in human Jurkat cell line (A) The protein construction of PD-1 tagged with mCherry and a degron tag. […] Valine 388 in human CRBN (red on the left) is replaced by isoleucine in mouse CRBN (gray on the right, over the red valine), causing a conflict between CRBN and IKZF1/3 (yellow ellipse). The stretch of the methyl group in isoleucine causing the conflict is indicated by a yellow arrow. (C) The amount of PD-1 and mCherry fused to IKZF minimal (blue, n = 1), IKZF full length (light blue, n = 1), Sall4 (orange, n = 1) or super degron (SD; red, n = 3) tags in Jurkat human T cell lymphomas 24 h after the addition of pomalidomide (POM) measured by flow cytometry. […] (C and D) The amount was standardized with the sample to which no reagent was added as 1. Concentrations of reagents were 0 (−), 5, 10, and 20 μM for IKZF minimal, IKZF full-length, and Sall4 tags and 0 (−), 0.5, 5 μM for SD tag. The dots indicate the results of the experiment for each of samples.
# [3] = tested on: mouse PD-1-mCherry-IKZF full-length tag; conditions: Jurkat, 24 h
# [4] = mouse wild-type cell lines, independent of IBR concentration
structure (smiles),measurement,setting,value
"O=C1CC[C@H](N2Cc3c(OCc4ccc(CN5CCOCC5)cc4)cccc3C2=O)C(=O)N1 [IBR, iberdomide]",MC-38 cell proliferation,[1]; Pdcd1+/+/CrbnI391V/I391V mice,comparable
same,growth of MC-38 cells,"[1]; Pdcd1SD/SD/CrbnI391V/I391V mice, oral administration of IBR",suppressed proliferation for the entire period
same,PD-1 expression,mouse PD-1-SD,significantly reduced
same,"Tau, EGFP-SD degradation","EGFP-SD; EL4, 0.01 µM IBR",0.5057
same,"Plateau, EGFP-SD degradation","EGFP-SD; EL4, 0.01 µM IBR",0.106 and 0.11
same,"K, EGFP-SD degradation","EGFP-SD; EL4, 0.01 µM IBR",1.978
same,"Tau, EGFP-SD degradation","EGFP-SD; EL4, 0.1 µM IBR",0.4779
same,"Plateau, EGFP-SD degradation","EGFP-SD; EL4, 0.1 µM IBR",0.0948
same,"K, EGFP-SD degradation","EGFP-SD; EL4, 0.1 µM IBR",2.093
same,"Tau, EGFP-SD degradation","EGFP-SD; EL4, 1 µM IBR",0.4762
same,"Plateau, EGFP-SD degradation","EGFP-SD; EL4, 1 µM IBR",0.09035
same,"K, EGFP-SD degradation","EGFP-SD; EL4, 1 µM IBR",2.1
same,"Tau, EGFP-SD degradation","EGFP-SD; NIH/3T3, 0.01 µM IBR",0.5217
same,"Plateau, EGFP-SD degradation","EGFP-SD; NIH/3T3, 0.01 µM IBR",0.1206 and 0.12
same,"K, EGFP-SD degradation","EGFP-SD; NIH/3T3, 0.01 µM IBR",1.917
same,"Tau, EGFP-SD degradation","EGFP-SD; NIH/3T3, 0.1 µM IBR",0.4536
same,"Plateau, EGFP-SD degradation","EGFP-SD; NIH/3T3, 0.1 µM IBR",0.09879
same,"K, EGFP-SD degradation","EGFP-SD; NIH/3T3, 0.1 µM IBR",2.205
same,"Tau, EGFP-SD degradation","EGFP-SD; NIH/3T3, 1 µM IBR",0.4422
same,"Plateau, EGFP-SD degradation","EGFP-SD; NIH/3T3, 1 µM IBR",0.0887
same,"K, EGFP-SD degradation","EGFP-SD; NIH/3T3, 1 µM IBR",2.261
same,"Tau, EGFP-SD degradation","EGFP-SD; mESCs, 0.01 µM IBR",0.9013
same,"Plateau, EGFP-SD degradation","EGFP-SD; mESCs, 0.01 µM IBR",0.1599 and 0.16
same,"K, EGFP-SD degradation","EGFP-SD; mESCs, 0.01 µM IBR",1.11
same,"Tau, EGFP-SD degradation","EGFP-SD; mESCs, 0.1 µM IBR",0.8006
same,"Plateau, EGFP-SD degradation","EGFP-SD; mESCs, 0.1 µM IBR",0.1092
same,"K, EGFP-SD degradation","EGFP-SD; mESCs, 0.1 µM IBR",1.249
same,"Tau, EGFP-SD degradation","EGFP-SD; mESCs, 1 µM IBR",0.8069
same,"Plateau, EGFP-SD degradation","EGFP-SD; mESCs, 1 µM IBR",0.09822
same,"K, EGFP-SD degradation","EGFP-SD; mESCs, 1 µM IBR",1.239
same,time after which EGFP-SD expression was minimal,"EGFP-SD; mESCs, NIH/3T3, EL4",6 h
same,time to halve the amount of EGFP-SD,EGFP-SD; [4],20 to 40 min
same,time to reduce EGFP-SD to 10%,EGFP-SD; [4],approximately 3 h
"Nc1cccc2c1C(=O)N(C1CCC(=O)NC1=O)C2=O (stereo not drawn) [POM, pomalidomide]","LogDC50, mCherry (mC)",[2]; mCherry,0.04896 µM
same,"Bottom, mCherry (mC)","[2]; mCherry, no reagent = 1",0.8201
same,"LogDC50, PD-1 (FITC)",[2]; surface PD-1,0.1515 µM
same,"Bottom, PD-1 (FITC)","[2]; surface PD-1, no reagent = 1",0.53 and 0.5295
same,"Bottom, mCherry (mC)","[3]; mCherry, no reagent = 1",0.6165
same,"Bottom, PD-1 (FITC)","[3]; surface PD-1, no reagent = 1",0.32 and 0.3218

# Reference: publication PMC12274739, “Differential substrate degradation by super-degron: EGFP in wild-type mouse cells, PD-1 requires CRBN humanization” (iScience, 2025)
